Results from US20260355188A1, “COMBINATION THERAPIES USING PRMT5 INHIBITORS AND BCL-2 FAMILY INHIBITORS FOR THE TREATMENT OF CANCER” (MIRATI THERAPEUTICS, INC., priority 2022, published 2026).

Legend:
RT4 = assay: In vitro combination synergy, RT4 (Cell-Titer Glo); assay type: cell-based; conditions: combined with exemplary PRMT5 inhibitor, 120 h, sum of Loewe, Bliss, HSA and ZIP scores
Experimental: (§1) A panel of MTAP-deleted cancer cell lines was assembled to determine whether combining BCL-2 family inhibitors with exemplary PRMT5 inhibitors disclosed herein results in synergistic activity.
(§2) [Assays for determining the synergy score for the pairwise combinations for each cell line were performed in triplicate. 384 or 96-well plates plus additional wells of a separate 384 or 96-well control plate for determining baseline luminescence were seeded with cells of a particular MTAP-deleted cell line in a suitable growth medium for that cell line, e.g., RPMI 1640 medium supplemented with 10% FBS and any cell line specific reagents needed for growth. The plates were incubated overnight at 37 °C in a 5% CO2 atmosphere.
(§3) To each of the designated baseline wells, Cell-Titer Glo reagent (CTG; Promega Corporation) was added to each well and the plates were incubated for 20 min shaking at room temperature. Baseline luminescence was quantitated using a BMG ClarioStar multimode plate reader according to the manufacturer's instructions.
(§4) A series of 1000× drug dilutions in 100% DMSO was prepared that includes a 9-point single agent 3-fold dilution of the exemplary PRMT5 inhibitor (of the type described in WO2021/050915) with a top dose of 3000 nM (and a 6-point single agent 5-fold dilution of the BCL-2 family inhibitor with a top dose of 3000 nM as reference standards.
(§5) A 10× intermediate dosing plate was prepared in serum free medium that contains arrayed single agent dilutions of exemplary PRMT5 inhibitor (of the type described in WO2021/050915) and or the BCL-2 family inhibitor. In addition, a matrix of 54 dilution combinations of exemplary PRMT5 inhibitor (of the type described in WO2021/050915) and the BCL-2 family inhibitor was prepared as test samples.
(§6) To each corresponding well of the 384-well plates seeded with the appropriate cell line above, 10× single agent and the 54 combinations of the dose matrix was added and the plates were incubated for 120 hours at 37 °C in 5% CO2 atmosphere. Cell-Titer Glo reagent (CTG) was added to each test well, the plates were incubated for 20 min shaking at room temperature, and luminescence was quantitated using a BMG ClarioStar multimode plate reader according to the manufacturer's instructions. To normalize test samples, the determined baseline luminescence was subtracted from each test sample prior to analysis and mean values are calculated from replicate samples.
(§7) The output of the data from each mathematical model is the assignment of a relative synergy score. The data reported in Table 6 are the aggregate sum of the Loewe additivity, Bliss independence, Highest Single Agent and ZIP synergy scores (“Composite Synergy Score”).

SU8686 = assay: In vitro combination synergy, SU8686 (Cell-Titer Glo); assay type: cell-based; conditions: combined with exemplary PRMT5 inhibitor, 120 h, sum of Loewe, Bliss, HSA and ZIP scores
Experimental: as §1, §2, §3, §4, §5, §6, §7

Mero83 = assay: In vitro combination synergy, Mero83 (Cell-Titer Glo); assay type: cell-based; conditions: combined with exemplary PRMT5 inhibitor, 120 h, sum of Loewe, Bliss, HSA and ZIP scores
Experimental: as §1, §2, §3, §4, §5, §6, §7

H2052 = assay: In vitro combination synergy, H2052 (Cell-Titer Glo); assay type: cell-based; conditions: combined with exemplary PRMT5 inhibitor, 120 h, sum of Loewe, Bliss, HSA and ZIP scores
Experimental: as §1, §2, §3, §4, §5, §6, §7

LU99 xenograft tumors = assay: In vivo combination study (LU99 model), Example 1; set-up: species or system female nu/nu mice; conditions: MRTX1719, ABT-263, ABT-199 each 100 mg/kg PO QD, alone or combined
Description: Immunodeficient female nu/nu mice were implanted with 5×10^6 LU99 cancer cells in 50% Matrigel. Tumor volume measurements were collected using calipers and determined utilizing the formula 0.5×L×W^2 in which L refers to length and W refers to width of each tumor. When tumors reached approximately 125-150 mm^3, animals were randomized to receive A) vehicle, B) a PRMT5 inhibitor, C) navitoclax (ABT-263), D) venetoclax (ABT-199), E) A-1331852, F) the PRMT5 inhibitor and navitoclax, F) the PRMT5 inhibitor and venetoclax, or G) the PRMT5 inhibitor and A-1331852 all administered orally (PO) with the indicated dose and schedule for 20-34 days. Tumor volume was measured twice a week (n=5/treatment group). Average tumor volume and standard error of the mean was calculated and plotted at each study day using GraphPad Prism.
The PRMT5 inhibitor was MRTX1719 administered at 100 mg/kg once a day (QD). MRTX1719 is (2M)-2-(4-(4-(aminomethyl)-1-oxo-1,2-dihydrophthalazin-6-yl)-1-methyl-1H-pyrazol-5-yl)-4-chloro-6-cyclopropoxy-3-fluorobenzonitrile, disclosed as Example 16-8 at p. 307 of the international patent publication No. WO 2021/050915 A1, published 18 Mar. 2021, incorporated by reference in its entirety.
The BCL-2 family inhibitors used in this example, ABT-199 (venetoclax) and ABT-263 (navitoclax), were administered at 100 mg/kg once a day (QD) and supplied by Selleck Chemicals (Houston, TX).

H2452 = assay: In vitro combination synergy, H2452 (Cell-Titer Glo); assay type: cell-based; conditions: combined with exemplary PRMT5 inhibitor, 120 h, sum of Loewe, Bliss, HSA and ZIP scores
Experimental: as §1, §2, §3, §4, §5, §6, §7

H2228 = assay: In vitro combination synergy, H2228 (Cell-Titer Glo); assay type: cell-based; conditions: combined with exemplary PRMT5 inhibitor, 120 h, sum of Loewe, Bliss, HSA and ZIP scores
Experimental: as §1, §2, §3, §4, §5, §6, §7

A549 = assay: In vitro combination synergy, A549 (Cell-Titer Glo); assay type: cell-based; conditions: combined with exemplary PRMT5 inhibitor, 120 h, sum of Loewe, Bliss, HSA and ZIP scores
Experimental: as §1, §2, §3, §4, §5, §6, §7

Mero84 = assay: In vitro combination synergy, Mero84 (Cell-Titer Glo); assay type: cell-based; conditions: combined with exemplary PRMT5 inhibitor, 120 h, sum of Loewe, Bliss, HSA and ZIP scores
Experimental: as §1, §2, §3, §4, §5, §6, §7

LU99 = assay: In vitro combination synergy, LU99 (Cell-Titer Glo); assay type: cell-based; conditions: combined with exemplary PRMT5 inhibitor, 120 h, sum of Loewe, Bliss, HSA and ZIP scores
Experimental: as §1, §2, §3, §4, §5, §6, §7

Mero14 = assay: In vitro combination synergy, Mero14 (Cell-Titer Glo); assay type: cell-based; conditions: combined with exemplary PRMT5 inhibitor, 120 h, sum of Loewe, Bliss, HSA and ZIP scores
Experimental: as §1, §2, §3, §4, §5, §6, §7

H1437 = assay: In vitro combination synergy, H1437 (Cell-Titer Glo); assay type: cell-based; conditions: combined with exemplary PRMT5 inhibitor, 120 h, sum of Loewe, Bliss, HSA and ZIP scores
Experimental: as §1, §2, §3, §4, §5, §6, §7

Miapaca2 = assay: In vitro combination synergy, Miapaca2 (Cell-Titer Glo); assay type: cell-based; conditions: combined with exemplary PRMT5 inhibitor, 120 h, sum of Loewe, Bliss, HSA and ZIP scores
Experimental: as §1, §2, §3, §4, §5, §6, §7

H1650 = assay: In vitro combination synergy, H1650 (Cell-Titer Glo); assay type: cell-based; conditions: combined with exemplary PRMT5 inhibitor, 120 h, sum of Loewe, Bliss, HSA and ZIP scores
Experimental: as §1, §2, §3, §4, §5, §6, §7

SW1573 = assay: In vitro combination synergy, SW1573 (Cell-Titer Glo); assay type: cell-based; conditions: combined with exemplary PRMT5 inhibitor, 120 h, sum of Loewe, Bliss, HSA and ZIP scores
Experimental: as §1, §2, §3, §4, §5, §6, §7

HCC4006 = assay: In vitro combination synergy, HCC4006 (Cell-Titer Glo); assay type: cell-based; conditions: combined with exemplary PRMT5 inhibitor, 120 h, sum of Loewe, Bliss, HSA and ZIP scores
Experimental: as §1, §2, §3, §4, §5, §6, §7

SMILES	Composite Synergy Score (RT4)	Composite Synergy Score (SU8686)	Composite Synergy Score (Mero83)	Composite Synergy Score (H2052)	Composite Synergy Score (H2452)	Composite Synergy Score (H2228)	Composite Synergy Score (A549)	Composite Synergy Score (Mero84)	Composite Synergy Score (LU99)	Composite Synergy Score (Mero14)	Composite Synergy Score (H1437)	Composite Synergy Score (Miapaca2)	Composite Synergy Score (H1650)	Composite Synergy Score (SW1573)	Composite Synergy Score (HCC4006)	also measured
CC1(C)CCC(CN2CCN(c3ccc(C(=O)NS(=O)(=O)c4ccc(NCC5CCOCC5)c([N+](=O)[O-])c4)c(Oc4cnc5[nH]ccc5c4)c3)CC2)=C(c2ccc(Cl)cc2)C1 [ABT-199, venetoclax]	0	4	20	−33	28	−13	−7	−12	−8	−8	2	−7	−11	−16	−6	Average Tumor Volume (LU99 xenograft tumors; day 3): 270 mm^3; Average Tumor Volume (LU99 xenograft tumors; day 6): 462 mm^3; Average Tumor Volume (LU99 xenograft tumors; day 10): 709 mm^3; Average Tumor Volume (LU99 xenograft tumors; day 13): 956 mm^3; Average Tumor Volume (LU99 xenograft tumors; day 17): 1395 mm^3; Average Tumor Volume (LU99 xenograft tumors; day 20): 1675 mm^3; Average Tumor Volume (LU99 xenograft tumors; day −1): 153 mm^3
CN(C)CC#Cc1ccc(OCCCc2sc(N3CCc4cccc(C(=O)Nc5nc6ccccc6s5)c4C3)nc2C(=O)O)c(F)c1 [A-1155463]	37	50	−11	14	37	46	22	0	27	12	17	44	51	29	88	–
